Test results from ChEMBL document CHEMBL2321717, “Synthesis of novel estrogen receptor antagonists using metal-catalyzed coupling reactions and characterization of their biological activity” (J Med Chem, 2013).
Active and inactive are the calls of the source. No cut-off for these calls is given here.

Experiments:
[1] = target: Estrogen receptor alpha (Homo sapiens) (UniProt P03372); test: Agonist activity at ERalpha receptor in human HeLa cells assessed as activation of ERalpha-based transcription at 100 nM after 20 to 24 hrs by luciferase reporter gene assay
[2] = target: Estrogen receptor alpha (Homo sapiens) (UniProt P03372); test: Agonist activity at LBD of ERalpha receptor in human HeLa cells assessed as induction of receptor-SRC-1 interaction at 100 nM after 20 to 24 hrs by luciferase reporter gene assay
[3] = target: Estrogen receptor alpha (Homo sapiens) (UniProt P03372); test: Agonist activity at ERalpha receptor in human MCF7 cells assessed as stimulation of cell proliferation after 6 days by crystal violet staining method
[4] = target: Estrogen receptor beta (Homo sapiens, UniProt Q92731)
Estrogen receptor beta, sequence (Q92731 whole entry): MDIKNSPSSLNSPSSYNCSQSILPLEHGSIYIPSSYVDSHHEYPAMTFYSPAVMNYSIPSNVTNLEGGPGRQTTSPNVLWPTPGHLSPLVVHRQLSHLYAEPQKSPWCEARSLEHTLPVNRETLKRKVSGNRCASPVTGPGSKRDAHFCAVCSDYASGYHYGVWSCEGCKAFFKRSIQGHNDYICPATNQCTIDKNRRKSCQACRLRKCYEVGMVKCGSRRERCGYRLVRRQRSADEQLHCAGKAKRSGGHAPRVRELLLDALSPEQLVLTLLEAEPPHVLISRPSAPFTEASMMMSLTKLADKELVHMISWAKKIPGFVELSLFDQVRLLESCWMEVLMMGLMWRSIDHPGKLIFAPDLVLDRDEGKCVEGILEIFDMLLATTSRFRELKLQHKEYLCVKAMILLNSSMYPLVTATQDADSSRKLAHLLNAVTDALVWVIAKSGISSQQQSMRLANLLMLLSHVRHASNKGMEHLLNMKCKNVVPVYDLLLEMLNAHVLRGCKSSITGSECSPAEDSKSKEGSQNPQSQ

[5] = target: T1, Estrogen receptor (Homo sapiens, UniProt P03372)
T1 sequence (P03372 whole entry): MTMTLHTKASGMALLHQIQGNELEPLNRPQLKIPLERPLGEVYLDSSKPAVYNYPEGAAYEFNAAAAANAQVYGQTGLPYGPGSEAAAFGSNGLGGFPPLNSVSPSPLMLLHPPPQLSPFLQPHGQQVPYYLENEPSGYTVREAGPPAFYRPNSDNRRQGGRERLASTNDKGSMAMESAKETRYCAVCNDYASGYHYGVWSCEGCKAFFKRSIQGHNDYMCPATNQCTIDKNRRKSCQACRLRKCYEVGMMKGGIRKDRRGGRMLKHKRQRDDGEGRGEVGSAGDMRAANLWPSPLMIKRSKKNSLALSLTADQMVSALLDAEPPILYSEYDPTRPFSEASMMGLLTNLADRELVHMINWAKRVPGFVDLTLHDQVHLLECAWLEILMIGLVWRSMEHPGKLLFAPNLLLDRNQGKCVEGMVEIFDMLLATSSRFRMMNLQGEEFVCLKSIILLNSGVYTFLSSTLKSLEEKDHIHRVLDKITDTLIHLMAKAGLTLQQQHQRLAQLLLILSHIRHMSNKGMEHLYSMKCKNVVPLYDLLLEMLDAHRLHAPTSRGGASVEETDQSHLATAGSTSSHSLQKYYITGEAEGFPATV

[6] = system: MDA-MB-231; test: Stimulation of cell proliferation in human ERalpha receptor negative MDA-MB-231 cells after 6 days by crystal violet staining method; type: functional, cell-based
[7] = target: Estrogen receptor alpha (Homo sapiens) (UniProt P03372); test: Partial agonist activity at ERalpha receptor in human HeLa cells assessed as activation of ERalpha-based transcription at 100 nM after 20 to 24 hrs by luciferase reporter gene assay
[8] = system: MDA-MB-231; test: Inhibition of cell proliferation in human ERalpha receptor negative MDA-MB-231 cells after 6 days by crystal violet staining method; type: functional, cell-based
[9] = target: Estrogen receptor alpha (Homo sapiens) (UniProt P03372); test: Agonist activity at ERalpha receptor in human HepG2 cells assessed as activation of ERalpha-based transcription at 100 nM after 20 to 24 hrs by luciferase reporter gene assay
[10] = target: Estrogen receptor alpha (Homo sapiens) (UniProt P03372); test: Antagonist activity at ERalpha receptor in human HeLa cells assessed as inhibition of E2-induced response after 20 to 24 hrs by luciferase reporter gene assay

| SMILES | Activity [1] | Activity [2] | Activity [3] | IC50 [4] [nM] | IC50 [5] [nM] | Activity [10] | Activity [6] | Activity [7] | Activity [8] | Activity [9] [%] |
| --- | --- | --- | --- | --- | --- | --- | --- | --- | --- | --- |
| CC(C)(C)OC(=O)N1CCN(c2ccc(C#CCCCC[C@@H]3Cc4cc(O)ccc4[C@H]4CC[C@]5(C)[C@@H](O)CC[C@H]5[C@H]34)cc2)CC1 | Active | – | – | 436 | 567 | – | inactive | Active | inactive | – |
| C[C@]12CC[C@@H]3c4ccc(O)cc4C[C@@H](CCCCC#Cc4ccc(CN5CCCCC5)cc4)[C@H]3[C@@H]1CC[C@@H]2O | Active | Active | Active | – | 638 | – | – | – | – | – |
| C[C@]12CC[C@@H]3c4ccc(O)cc4C[C@@H](CCCCC#Cc4ccc5ccccc5c4)[C@H]3[C@@H]1CC[C@@H]2O | Active | Active | Active | – | 176 | – | – | – | – | – |
| C[C@]12CC[C@@H]3c4ccc(O)cc4C[C@@H](CCCCC#Cc4ccc(-c5ccno5)cc4)[C@H]3[C@@H]1CC[C@@H]2O | Active | – | – | – | – | – | inactive | Active | inactive | 50 |

Further lines, with some results ahead:

| Activity [1] | Activity [2] | Activity [3] | IC50 [4] [nM] | IC50 [5] [nM] | Activity [10] | SMILES | Activity [6] | Activity [7] | Activity [8] | Activity [9] [%] |
| --- | --- | --- | --- | --- | --- | --- | --- | --- | --- | --- |
| Active | Active | Active | 185 | 96.5 | – | CCOC(=O)CC(=O)c1ccc(C#CCCCC[C@@H]2Cc3cc(O)ccc3[C@H]3CC[C@]4(C)[C@@H](O)CC[C@H]4[C@H]23)cc1 | – | – | – | – |
| Active | Active | Active | 151 | 126 | – | CCOC(=O)C(Cc1ccc(C#CCCCC[C@@H]2Cc3cc(O)ccc3[C@H]3CC[C@]4(C)[C@@H](O)CC[C@H]4[C@H]23)cc1)C(=O)OCC | – | – | – | – |
| Active | Active | Active | – | 28.3 | – | C[C@]12CC[C@@H]3c4ccc(O)cc4C[C@@H](CCCCC#Cc4ccc(-n5cccc5)cc4)[C@H]3[C@@H]1CC[C@@H]2O | – | – | – | – |
| – | – | – | 41.2 | 24.4 | Active | C[C@]12CC[C@@H]3c4ccc(O)cc4C[C@@H](CCCCc4cn(CC5COc6ccccc6O5)nn4)[C@H]3[C@@H]1CC[C@@H]2O (some centres not stated) | – | – | – | 50 |
